According to patent US8614231B2, “Immunosuppressor based on the blockage of TCR-Nck interaction” (Consejo Superior de Investigaciones Cientificas, priority 2008, dated 2013):
“Also recorded” adds a separate entry of the source.

Assays:
[1] = tested on: human IL2-dependent lymphoblasts; experiment: Proliferation of human IL2-dependent lymphoblasts (IL2R-dependent proliferation); assay type: cell-based; conditions: at concentrations of 20 μM; 100 IU/ml IL2, 3 days
Method: (§1) PBMNCs purified from healthy donors were labelled with CFSE and incubated for 5 days on plates coated with anti-CD3 OKT3 antibody in the presence of various doses of the compounds indicated, among them CBM-1. The proliferation was evaluated by flow cytometry in accordance with the loss of green fluorescence (CFSE) within the CD4+ and CD8+ populations. A parallel experiment was performed on the proliferation of human IL2-dependent lymphoblasts. Purified PBMNC from healthy donors were stimulated with PHA for 48 hours and labelled with CFSE. The were subsequently cultured for 3 days in the presence of 100 IU/ml of human recombinant IL2 in the presence of concentrations of the compounds used, particularly CBM-1.

[2] = tested on: Human Jurkat T lymphocyte cell line; experiment: Toxicity by propidium iodide exclusion and flow cytometry, Jurkat; assay type: cell-based; conditions: 48 hours, even at the highest dose
Method: (§2) Human Jurkat T lymphocyte cell line and human Raji lymphoblastoid B cell line were incubated with the indicated concentrations of CBM-1 for 48 hours. The toxicity of the compound was estimated by propidium iodide exclusion and flow cytometry. The two cell lines remained with 100% viability after 48 hours, even at the highest dose of the compound.

[3] = biological target: T1, SH3.1 domain of Nckα (Homo sapiens, UniProt P16333); experiment: NMR chemical displacements in the SH3.1 domain on compound binding; conditions: residues Trp41 and Tyr50/Phe53 participate
T1 construct: The three-dimensional structure of the SH3.1 domain of Nckα
Method: Displacements of the amino acid residues in the SH3.1 domain caused by the interaction with compound CBM-1. The lateral chains of the amino acids that changed their position after binding the compound are represented. The changes are consequent to the binding of compound CBM-1 to the pocket visualised in virtual screening.
The three-dimensional structure of the SH3.1 domain of Nckα, in the presence and in the absence of peptide 11R085, was determined in parallel (with the collaboration of the laboratory of Professors María Angeles Jiménez and Manuel Rico, of the Instituto de Química-Física Rocasolano, CSIC, Madrid) (FIG. 6). This enabled validation of the prediction of the structural computer model used for virtual screening. In addition, it allowed measurement of the chemical displacements caused to the structure by compound CBM-1 (FIG. 7).
The displacements of residues in the SH3.1 domain validate the prediction of the interaction of the SH3.1 domain with CBM-1 at a molecular level and are consistent with the model.

[4] = tested on: human Raji lymphoblastoid B cell line; experiment: Toxicity by propidium iodide exclusion and flow cytometry, Raji; assay type: cell-based; conditions: 48 hours, even at the highest dose
Method: as §2

[5] = tested on: human T lymphocytes; experiment: Cytokine secretion by human T lymphocytes (PBMNC) stimulated with anti-CD3 antibodies; assay type: cell-based; conditions: for IC50: Homo sapiens, T-lymphocyte, supernatant at 72 hours, anti-CD3
Method: Inhibition by CBM-1 of the secretion of cytokines by human T lymphocytes in response to stimulation with anti-CD3 antibodies. Peripheral blood mononuclear cells (PBMNC) purified from healthy donors were stimulated on plates coated with anti-CD3 OKT3 antibodies in the presence of various doses of CBM-1 for 72 hours. The concentration of the indicated cytokines in the supernatant (IL-10, IFN-γ, and TFN-β) was evaluated by multiparametric flow cytometry (BD cytometric bead array).
The effect of CBM-1 on the production of cytokines was measured in an assay in which human PBMNC were stimulated with anti-CD3 antibodies. The supernatant of these cells was collected at 72 hours and several cytokines were simultaneously measured by a flow cytometry assay.

[6] = tested on: C57BL/6 mouse spleen cells; experiment: Intracellular IFNγ expression by mouse CD4+ T cells stimulated with anti-CD3 + anti-CD28; assay type: cell-based; conditions: Lymphocyte, anti-CD3 + anti-CD28 48 hours, then brefeldin A 6 hours, read-out: IC50 generation of IFNγ-secreting Th1 lymphocytes
Description: Intracellular expression of IFNγ in response to stimulation with a mixture of anti-CD3 and anti-CD28.
The cells were first stained with CD4-PE and after fixing and rinsing they were stained with anti-IFNγ antibody.

[7] = tested on: human T lymphocytes; experiment: Proliferation of human T lymphocytes stimulated with anti-CD3 antibodies (CFSE, flow cytometry); assay type: cell-based; conditions: for IC50: Homo sapiens, T-lymphocyte, 120 h, PBMNC, 5 days
Method: For the next round of selection of the compounds resulting from virtual screening with potential for blocking Nck-CD3ε interaction, PBMNC purified from healthy donors were labelled with fluorescence and incubated for 5 days on plates covered with anti-CD3 OKT3 antibodies in the presence of different doses of these compounds. Proliferation of T lymphocytes was evaluated by flow cytometry in accordance with the loss of green fluorescence (CFSE) within the CD8+ population.
as §1

[8] = tested on: T lymphocytes; experiment: Inhibitory action on the activation of T lymphocytes (summary statement); assay type: cell-based; conditions: both in mice and humans; concentrations as low as
Description: It inhibited the production of IFNγ, IL-10 and TNFβ, as well as the generation of human cells that produce IFNγ in response to anti-CD3 and anti-CD28 in human lymphocytes stimulated with anti-CD3 and anti-CD28 antibodies.

[9] = tested on: OT-I transgenic mouse primary lymphocytes; experiment: IL2 production and antigen-induced proliferation of mouse T lymphocytes; assay type: cell-based
Description: Thus, Nck-CD3ε interaction as a molecular target for immunosuppressor development has been validated.

[10] = 72 hours, up to concentrations of 30 μM

c1ccc(C2=C(CN3CCCCC3)C(c3ccccc3)c3ccccc3O2)cc1 (centres unmarked) [CBM-1]
inhibition of the proliferation of human IL2-dependent lymphoblasts [1]: did not significantly inhibit | viability [2]: 100% | binding to the SH3.1 domain (NMR) [3]: binds to a hydrophobic pocket | viability [4]: 100% | effect on the production of IL5 [5, 10]: did not show any effect; also recorded: no effect | effect on the production of IL6 [5, 10]: did not show any effect; also recorded: no effect | effect on the release of IL1-β ([5]; 72 hours, various doses): did not show any effect | IC50 ([5]; read-out: IC50 IFNγ production): 300 nM | IC50 ([5]; read-out: IC50 IL10 production): 200 nM | IC50 ([5]; read-out: IC50 TNFβ production): 200 nM | IC50 [6]: 800 nM | IC50 ([7]; anti-CD3 OKT3, CD4+ population, read-out: IC50 proliferation of CD4+ lymphocytes induced by anti-CD3): 2000 nM | IC50 ([7]; anti-CD3 OKT3, CD8+ population, read-out: IC50 proliferation of CD8+ lymphocytes induced by anti-CD3): 3000 nM | blocking activity on the proliferation of the lymphocytes (in words) ([7]; anti-CD3 OKT3, 5 days, compounds from virtual screening): highest activity and least toxicity; also recorded: best and least toxic | concentration with inhibitory action on the activation of T lymphocytes [8]: ≥ 0.1 µM | proliferation of antigen-dependent mouse T lymphocytes (in words) [9]: inhibited | release of IL2 (in words) ([9]; mouse T lymphocytes): inhibited
